From PMC3617124 (Nature chemical biology, 2012)
Each block holds one compound with its values, some of them ahead of it.

Columns and labels:
BCL-XLΔC = BCL-XLΔC (Homo sapiens, UniProt Q07817); assay: competitive FPA, BCL-XLΔC; type: binding; conditions: even at 50-μM dosing
MCL-1ΔNΔC = MCL-1ΔNΔC (Homo sapiens, UniProt Q07820); assay: competitive FPA, MCL-1ΔNΔC; type: binding; conditions: even at 50-μM dosing
BFL-1/A1ΔC = target: T1, BFL-1/A1ΔC (Homo sapiens, UniProt Q16548); assay: competitive FPA, BFL-1/A1ΔC; type: binding; conditions: even at 50-μM dosing
T1 sequence (Q16548 1-153 limits assumed): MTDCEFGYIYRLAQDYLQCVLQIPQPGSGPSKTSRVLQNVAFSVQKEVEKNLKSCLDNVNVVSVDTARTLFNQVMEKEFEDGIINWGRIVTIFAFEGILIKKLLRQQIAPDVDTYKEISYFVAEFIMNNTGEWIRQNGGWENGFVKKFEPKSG

BAKΔC = assay: competitive FPA, BAKΔC; type: binding
Bak^−/− MEFs [1] = assay: cell viability assay; type: cell-based, mouse; conditions: 24 h, CellTiter-Glo
Bax^−/− MEFs = assay: cell viability assay; type: cell-based, mouse; conditions: 24 h, CellTiter-Glo
Bax^−/− Bak^−/− MEFs = assay: cell viability assay; type: cell-based, mouse; conditions: 24 h, CellTiter-Glo
Bak^−/− MEFs [2] = assay: mitochondrial cytochrome c release; type: cell-based, mouse; conditions: 15 h, supernatant and pellet western blot
Bax^−/− and Bak^−/− MEFs = assay: apoptotic response to standard proapoptotic stimuli; type: cell-based, mouse

Sequence of BCL-XLΔC (Q07817 1-212 limits assumed, stated change not applied): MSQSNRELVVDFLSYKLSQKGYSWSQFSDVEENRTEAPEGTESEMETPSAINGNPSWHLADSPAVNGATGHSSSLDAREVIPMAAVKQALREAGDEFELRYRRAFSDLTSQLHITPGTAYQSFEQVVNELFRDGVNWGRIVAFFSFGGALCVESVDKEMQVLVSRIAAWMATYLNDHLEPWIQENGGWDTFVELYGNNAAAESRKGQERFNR
Sequence of MCL-1ΔNΔC (Q07820 172-327, stated change not applied): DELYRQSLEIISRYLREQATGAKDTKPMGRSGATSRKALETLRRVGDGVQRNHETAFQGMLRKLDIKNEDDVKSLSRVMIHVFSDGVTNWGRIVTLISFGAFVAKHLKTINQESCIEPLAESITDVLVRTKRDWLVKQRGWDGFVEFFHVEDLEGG

competitive binding interaction with BCL-XLΔC (BCL-XLΔC): little to no
competitive binding interaction with MCL-1ΔNΔC (MCL-1ΔNΔC): little to no
competitive binding interaction with BFL-1/A1ΔC (BFL-1/A1ΔC): little to no
competitive binding interaction with BAKΔC (BAKΔC; even at 50-μM dosing): little to no
SMILES: CCOc1ccccc1NN=C1C(=O)N(c2nc(-c3ccccc3)cs2)N=C1C [BAM7, 4-(2-(2-ethoxyphenyl) hydrazono)-3-methyl-1-(4-phenylthiazol-2-yl)-1H-pyrazol-5(4H)-one]
viability of Bak−/− MEFs (Bak^−/− MEFs [1]): dose- and time-responsively impaired the viability
viability of Bax−/− MEFs (Bax^−/− MEFs): no effect
viability of Bax−/− Bak−/− MEFs (Bax^−/− Bak^−/− MEFs): did not affect the viability
mitochondrial cytochrome c release (Bak^−/− MEFs [2]): dose-responsive mitochondrial cytochrome c release

SMILES: CC[C@H](C)[C@H](NC(C)=O)C(=O)N[C@@H](Cc1c[nH]c2ccccc12)C(=O)N[C@H](C(=O)N[C@@H](C)C(=O)N[C@@H](CCC(N)=O)C(=O)N[C@@H](CCC(=O)O)C(=O)N[C@@H](CC(C)C)C(=O)N[C@@H](CCCNC(=N)N)C(=O)N[C@@]1(C)CCCC=CCCC[C@@](C)(C(=O)N[C@@H](Cc2ccccc2)C(=O)N[C@@H](CC(N)=O)C(=O)N[C@@H](C)C(=O)N[C@@H](Cc2ccc(O)cc2)C(=O)N[C@@H](Cc2ccc(O)cc2)C(=O)N[C@@H](C)C(=O)N[C@@H](CCCNC(=N)N)C(=O)N[C@@H](CCCNC(=N)N)C(N)=O)NC(=O)[C@H](CC(=O)O)NC(=O)CNC(=O)[C@H]([C@@H](C)CC)NC1=O)[C@@H](C)CC [BIM SAHB, reference compound]
IC50 (BAKΔC; read-out: IC50, competition with FITC–BIM SAHB for BAKΔC, competitive FPA): 827 nM

SMILES: COc1cc([C@@H]2c3cc4c(cc3[C@@H](O[C@@H]3O[C@@H]5CO[C@@H](C)O[C@H]5[C@H](O)[C@H]3O)[C@H]3COC(=O)[C@H]23)OCO4)cc(OC)c1O [etoposide]
apoptotic response in Bax−/− versus Bak−/− MEFs (Bax^−/− and Bak^−/− MEFs): equivalent apoptotic response

SMILES: CN[C@@H]1C[C@H]2O[C@@](C)([C@@H]1OC)n1c3ccccc3c3c4c(c5c6ccccc6n2c5c31)C(=O)NC4 [staurosporine]
apoptotic response in Bax−/− versus Bak−/− MEFs (Bax^−/− and Bak^−/− MEFs): equivalent apoptotic response
